{
  "source": "ChEMBL document CHEMBL1152013",
  "about": "“()-Phenylahistin: A new mammalian cell cycle inhibitor produced by aspergillus ustus” (Bioorg Med Chem Lett, 1997)",
  "system": "P388",
  "assay": "Inhibitory concentration required for cytotoxic effect against P388 murine leukemia cells",
  "assay_type": "functional, cell-based",
  "conditions": "Mus musculus",
  "data": [
    {"smiles": "C=CC(C)(C)c1[nH]cnc1/C=C1\\NC(=O)[C@@H](Cc2ccccc2)NC1=O", "values": [
      {"measurement": "IC50", "result": 38, "unit": "µM"}
    ]},
    {"smiles": "C=CC(C)(C)c1[nH]cnc1/C=C1\\NC(=O)[C@H](Cc2ccccc2)NC1=O", "values": [
      {"measurement": "IC50", "result": 0.35, "unit": "µM"}
    ]}
  ]
}
